Source: patent US20150335678A1, “METHOD OF ACTIVATING STEM CELLS IN AN ANIMAL AND THE USE OF CHLORINE DIOXIDE FOR PREPARING MEDICINES FOR ACTIVATING STEM CELLS IN AN ANIMAL” (priority 2012, published 2015)

What was measured:
[1] = test system: nestin-positive cells (neural stem cells); experiment: Nestin-positive cells in the SVZ region, immunohistochemical stain; type: in vivo, Sprague-Dawley rats; conditions: for number of nestin-positive cells in the SVZ region (mean±SD): diluted solution via carotid artery once a day, ten days
Experimental: Male Sprague-Dawley rats with the age of 12 weeks and weight of 250^˜280 g were used in the experiment after acclimating for a week.
A middle cerebral artery occlusion model was first established in compliance with the method of Longa E Z et al. (Longa E Z, et al. Reversible middle cerebral artery occlusion without craniectomy in rats. Stroke 20:84-91, 1989). More specifically, 0.36 g/kg of 10% chloral hydrate was administered intraperitoneally to rats which had been fasted for 12 hours (although given free access to water) to anesthetize the rats. Next, a midline incision was made in the neck to expose the right common carotid artery. Then, the internal carotid artery and external carotid artery were separated, the posterior carotid artery, which is a branch of the external carotid artery, and the thyroidea arteria were coagulated and severed, the external carotid artery was ligated at the branch of the lingual artery and maxillary artery, a small puncture was formed in the external carotid artery, 4-0 Nylon suture was passed through the common carotid artery from the puncture, and gradually inserted into the internal carotid artery until there was resistance. The length of the Nylon suture was about 18^˜20 mm from the branch of the common carotid artery. As a result of occluding the middle cerebral artery with Nylon suture, an ischemic state was applied for 2 hours to create a middle cerebral artery occlusion model.
A cerebral ischemia/reperfusion injury model was established by removing the Nylon suture from the middle cerebral artery of the occlusion model and following reperfusion of blood.
The first solution was a mixed solution made of sodium chlorite with the concentration of 7.47% and sodium chloride with the concentration of 1.59% with deionized water; the second solution was made of citric acid with the concentration of 16.7% with deionized water. Same volume of solutions were taken out from different vessels with different volumes and mixed up. Allow the solution to mix for 3-5 minutes and dilute it five times with normal saline, and then filter it with 0.22 μm filter membrane of double-deck. The solution was immediately put into injector. The solution was prepared once being used.
Treatment group (120 rats): A cerebral ischemia/reperfusion injury model was established for the rats already. To administer chlorine dioxide solution everytime that prepared from procedure (3) through carotid artery after the second day the model has established, once a day for total ten days.
Ten rats of each group were autopsied on day 7, 14 and 21 after the model established, respectively (total animals are 30 rats from each group). After preparation of tissue specimens, the neural stem cells were counted under a microscope.
More specifically, rat frozen brain sections were prepared on day 7, 14 and 21 after the model established, and the presence of nestin-positive cells in the subventricular zone (SVZ) was measured by immunohistochemical stain using the marker of nestin expressed on the neural stem cells. The presence of nestin-positive cells was analyzed using mouse anti-rat nestin monoclonal antibody.
BRt(%)=(Bt−St)/(Mt−St)×100

[2] = test system: gastric ulcer; experiment: hp-positive gastric ulcer patients: symptoms and ulcer healing by gastroscopy (Example 11); type: in vivo, human
Experimental: The subjects consisted of 90 gastric ulcer patients (50 male and 40 female) of hp-positive aged from 33 to 75 years old (average age: 41 years old). The subjects were randomly assigned to treatment group and control group with 30 patients in treatment group and 30 in control group 1 and 30 in control group 2 respectively.
Allow the solution to mix for 3-5 minutes. The capsule that containing activating agent of stem cells was made by injecting the mixed solution into the soft capsule of number 0.
The capsule that containing activating agent of stem cells was administered to the patients in treatment group three times a day and a pill each time; 30 minutes before meals, patients in control group 1 took orally 15 mg colloidal bismuth and 100 mg pectin tinidazole for three times a day. And 20 mg Omeprazole two times a day; patients in control group 2 took orally […] amoxicillin and 500 mg clindamycin three times a day and 20 mg esomeprazole twice a day before meals. Both groups were administered for a consecutive week. To observe the improvement of the clinical symptoms of the three cases two weeks after administration, such as stomachache, nausea and sour regurgitation. Gastroscopy and urease test of gastric antral mucosa were conducted after 30 days to observe ulcer healing and eradication of hp.
Criteria for measuring the effects: the changes of conditions before and after treatment and the time the symptoms disappear were recorded precisely. Diagnostic criteria are the followings: 1) complete healing: the symptoms disappear, such as ache, heartburn, nausea, sour regurgitation, abdominal distention; cure of ulceration under a gastroscope and the inflammation is gone; H pylori is negative. 2) Almost healing: subjective symptom disappear, and more than 90% ulceration are healed and the inflammation around is gone. 3) Effective: more than half of the ulcer surface shrink or more than half of ulceration reduced; 4) Ineffective: less than half of the ulceration are healed or haven't been changed, or even the ulcer surface or ulceration increase. To conduct rapid urease test by taking one sample of gastric mucosa at antrum of stomach and gastric body respectively, if the results are negative, it means Hp negative conversing.

[3] = test system: scar; experiment: Patients with scar, topical solution with dimethyl sulfoxide (Example 13); type: in vivo, human; conditions: 20 patients with scar
From the text: The subjects consisted of 20 patients with scar, including 7 male and 13 female (average age: 33 years old.) There are five cases with burn scar, 7 cases with scars resulting from accidental injury, 5 cases with surgical scar, 3 cases with scar from skin disease. The average course of disease is about 3 years.
Then the solution was immediately smeared over the scar, once a day for 10-15 days consecutively then stops administration. The second administration began 1-2 months after drug withdrawal of the first administration, once a day for consecutive 5-10 days.
To observe the effects a month after first administration and second administration. The effects were measured according to pain, stiffness and hyperpigmentation around.
specific criteria: obvious pain (+++), moderate pain (++), mild pain (+) no pain (−). stiffness of scar: can't sunken with hard pressing, (+++) can sunken with moderate pressing, (++), complete depression with mild pressing (+). Same character with normal skin (−). hyperpigmentation around: >2 cm, (+++), 1˜2 cm (++), <1 cm (+), 0 (−)
Measurement of clinical effect: excellent: no pain, and the stiffness is the same to normal skin with no hyperpigmentation around. effective: the indicators of pain, stiffness and hyperpigmentation are (+)˜(++); ineffective: one of the indicators of pain, stiffness and hyperpigmentation is (+++).

[4] = a month after first administration
[5] = a month after second administration

What does the source list for `[O][Cl+][O-]` [chlorine dioxide solution, chlorine dioxide]?
BRt: nestin-positive cells in treatment group relative to model group = 100%, (Bt-St)/(Mt-St)x100 ([1]; Day 7): 157.4%; number of nestin-positive cells in the SVZ region (mean±SD) ([1]; Day 7 after model established, model group 210.5 ± 22.3, sham 45.6 ± 5.69): 305.2 ± 30.6 No. cells/mm2; BRt: nestin-positive cells in treatment group relative to model group = 100%, (Bt-St)/(Mt-St)x100 ([1]; Day 14): 150.2%; number of nestin-positive cells in the SVZ region (mean±SD) ([1]; Day 14, model group 74.5 ± 13.4, sham 13.2 ± 1.64): 105.3 ± 15.4 No. cells/mm2; BRt: nestin-positive cells in treatment group relative to model group = 100%, (Bt-St)/(Mt-St)x100 ([1]; Day 21): 138.5%; number of nestin-positive cells in the SVZ region (mean±SD) ([1]; Day 21, model group 46.2 ± 6.31, sham 1.99 ± 1.09): 63.2 ± 7.55 No. cells/mm2; Symptoms disappear after a week (No.) ([2]; 30 hp-positive gastric ulcer patients per group, administered for a consecutive week, test capsule NaClO2 20%/NaCl 5% + citric acid 30% 1:1, one pill three times a day): 30; Effective after 30 d (%) ([2]; 30 patients per group): 3.3%; Healing after 30 d (%) ([2]; 30 patients per group): 3.3%; Symptoms disappear after a week (%) ([2]; 30 patients per group, administered for a consecutive week): 100%; Healing after 30 d (No.) ([2]; 30 patients per group, almost healing: more than 90% ulceration healed): 1; Complete healing after 30 d (%) ([2]; 30 patients per group, gastroscopy): 93.3%; Complete healing after 30 d (No.) ([2]; 30 patients per group, gastroscopy, administered for a consecutive week): 28; Effective after 30 d (No.) ([2]; 30 patients per group, more than half of ulcer surface shrink): 1; ineffective (%) [3, 4]: 25%; ineffective (No.) [3, 4]: 5; total efficiency (%) [3, 4]: 30%; total efficiency (No.) [3, 4]: 6; Efficiency rate (No.) ([3]; a month after first administration, NaClO2 10%/NaCl 2.5% + citric acid 20% 1:1, DMSO 1:1, smeared once a day 10-15 days): 9; Efficiency rate (%) ([3]; a month after first administration, topical with DMSO): 45%; Efficiency rate (No.) ([3]; a month after second administration (once a day 5-10 days, 1-2 months after the first)): 15; Efficiency rate (%) [3, 5]: 75%; ineffective (No.) [3, 5]: 0; total efficiency (%) [3, 5]: 25%; total efficiency (No.) [3, 5]: 5
